# Experimental data as given in ChEMBL document CHEMBL1201862, “PubChem BioAssay data set” (2004).
#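 Method: 48-hour compound exposure of cells in 96-well plates, five concentrations, linear interpolation of endpoints. GI50 is the concentration that inhibits growth by half.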 Active and inactive are the calls of the source. Cut-off read from the data, not from the text of the source: active = GI50 up to about 1.1 µM and inactive = higher.
# How the values were obtained:
# Experiment in all cases: NCI tumour cell line growth inhibition, 48 h
# [1] = tested on: HT-29
# [2] = tested on: SK-MEL-28
# [3] = tested on: MCF7
# [4] = tested on: A498
# [5] = tested on: RXF 393
# [6] = tested on: HCT-15
# [7] = tested on: COLO 205
# [8] = tested on: BT-549
# [9] = tested on: T47D
# [10] = tested on: EKVX
# [11] = tested on: MDA-MB-231
# [12] = tested on: OVCAR-5
# [13] = tested on: PC-3
# [14] = tested on: NCI-H226
# [15] = tested on: SF-539
# [16] = tested on: KM12
# [17] = tested on: M14
# [18] = tested on: SW-620
# [19] = tested on: HCT-116
# [20] = tested on: IGROV-1
SMILES,GI50 [1],GI50 [2],GI50 [3],GI50 [4],GI50 [5],GI50 [6] [µM],GI50 [7],GI50 [8],GI50 [9],GI50 [10],GI50 [11],GI50 [12],GI50 [13],GI50 [14],GI50 [15],GI50 [16],GI50 [17],GI50 [18],GI50 [19],GI50 [20]
CCOC(=O)/C1=C(\C)N(Cc2ccccc2)C(=O)c2ccccc2C(=O)c2c(O)ccc(O)c21,> 100 µM (inactive),> 100 µM (inactive),< 0.01 µM (active),> 100 µM (inactive),17.5 µM (inactive),> 100,> 100 µM (inactive),< 0.01 µM (active),> 100 µM (inactive),80.7 µM (inactive),> 100 µM (inactive),> 100 µM (inactive),> 100 µM (inactive),> 100 µM (inactive),> 100 µM (inactive),> 100 µM (inactive),> 100 µM (inactive),> 100 µM (inactive),> 100 µM (inactive),34.7 µM (inactive)
COc1cccc(Nc2nc(NNC(=O)Cc3ccccc3)nc(NNC(=O)c3ccncc3)n2)c1,> 100 µM (inactive),> 100 µM (inactive),> 10 µM (inactive),> 100 µM (inactive),> 100 µM (inactive),7.93,> 10 µM (inactive),> 10 µM (inactive),> 10 µM (inactive),> 10 µM (inactive),8.55 µM (inactive),> 100 µM (inactive),53.1 µM (inactive),> 100 µM (inactive),> 10 µM (inactive),71.3 µM (inactive),79.4 µM (inactive),78.2 µM (inactive),> 100 µM (inactive),> 10 µM (inactive)
CCN(CC)CCOCCOCC1(c2ccc(Cl)c(Cl)c2)CCCCC1,2.29 µM (inactive),5.22 µM (inactive),6.34 µM (inactive),13.1 µM (inactive),4.26 µM (inactive),4.34,4.41 µM (inactive),12.7 µM (inactive),3.48 µM (inactive),8.17 µM (inactive),10.8 µM (inactive),11.5 µM (inactive),11.2 µM (inactive),17.9 µM (inactive),11.2 µM (inactive),5.06 µM (inactive),1.7 µM (inactive),5.61 µM (inactive),5.82 µM (inactive),8.43 µM (inactive)
COc1ccc2c(=O)c(-c3cc(OC)c(OC)cc3OC)coc2c1,2.35 µM (inactive),3.65 µM (inactive),0.778 µM (active),8.45 µM (inactive),2.45 µM (inactive),1.24,3.32 µM (inactive),> 100 µM (inactive),6.7 µM (inactive),36.1 µM (inactive),> 100 µM (inactive),> 100 µM (inactive),4.16 µM (inactive),> 43.2 µM (inactive),3.3 µM (inactive),2.74 µM (inactive),4.49 µM (inactive),2.33 µM (inactive),2.28 µM (inactive),19.2 µM (inactive)
CCCCCCCCC[C@@H]1C[C@@H]2CCC3C(C(=O)OCCCCNC(=O)OCc4ccccc4)=C(C)N=C(N1)N32 (some centres undefined),3.29 µM (inactive),3.61 µM (inactive),1.94 µM (inactive),4.66 µM (inactive),2.55 µM (inactive),2.81,1.62 µM (inactive),3.67 µM (inactive),2.57 µM (inactive),2.72 µM (inactive),2.28 µM (inactive),5.78 µM (inactive),2.47 µM (inactive),3.58 µM (inactive),3.86 µM (inactive),3.13 µM (inactive),2.55 µM (inactive),3.45 µM (inactive),3.11 µM (inactive),2.43 µM (inactive)
COc1ccc2c(c1)c1ccc3c(c1n2C)C(=O)C=CC3=O,14 µM (inactive),9.55 µM (inactive),2.45 µM (inactive),25.4 µM (inactive),5.35 µM (inactive),4.72,9.75 µM (inactive),3.77 µM (inactive),2.21 µM (inactive),14.1 µM (inactive),5.18 µM (inactive),15.2 µM (inactive),12.8 µM (inactive),14.3 µM (inactive),13 µM (inactive),18 µM (inactive),10.4 µM (inactive),4.1 µM (inactive),5.42 µM (inactive),12.7 µM (inactive)
COc1cc(/C=C/C2=NN(c3cccc(S(=O)(=O)O)c3)C3(C2)C(Cl)C(=O)N3c2nc3ccccc3s2)ccc1O (centres undefined),20.7 µM (inactive),25.1 µM (inactive),33.1 µM (inactive),55.6 µM (inactive),29.2 µM (inactive),16.7,18.5 µM (inactive),14.7 µM (inactive),6.47 µM (inactive),20.3 µM (inactive),20.8 µM (inactive),20.2 µM (inactive),25.6 µM (inactive),20.7 µM (inactive),21.4 µM (inactive),19.1 µM (inactive),40.7 µM (inactive),21.1 µM (inactive),19.5 µM (inactive),13.7 µM (inactive)
O=S(=O)(N1CCCCN(S(=O)(=O)C(F)(F)F)CCCN(S(=O)(=O)C(F)(F)F)CCCN(S(=O)(=O)C(F)(F)F)CCCCN(S(=O)(=O)C(F)(F)F)CCCN(S(=O)(=O)C(F)(F)F)CCC1)C(F)(F)F,> 100 µM (inactive),> 100 µM (inactive),> 100 µM (inactive),52.6 µM (inactive),28.6 µM (inactive),68.4,> 100 µM (inactive),23.7 µM (inactive),77.4 µM (inactive),72.3 µM (inactive),> 100 µM (inactive),> 100 µM (inactive),> 100 µM (inactive),81.8 µM (inactive),28.9 µM (inactive),> 100 µM (inactive),63.7 µM (inactive),> 100 µM (inactive),87.1 µM (inactive),35.6 µM (inactive)
CC(=O)Oc1ccc2cc(Oc3ccc(Cl)c(Cl)c3)c(=O)oc2c1,35.5 µM (inactive),25.3 µM (inactive),34.8 µM (inactive),22.3 µM (inactive),19.2 µM (inactive),14.6,,12.6 µM (inactive),11.5 µM (inactive),24 µM (inactive),27 µM (inactive),72.6 µM (inactive),24.7 µM (inactive),26.6 µM (inactive),19.7 µM (inactive),18.5 µM (inactive),38.5 µM (inactive),33.3 µM (inactive),18.5 µM (inactive),29.4 µM (inactive)
O=S(=O)(O)c1c(Cl)c(Cl)c(O)c2ncccc12,9.89 µM (inactive),13 µM (inactive),5.04 µM (inactive),1 µM (active),19.3 µM (inactive),5.33,9.95 µM (inactive),20.2 µM (inactive),7.08 µM (inactive),12.2 µM (inactive),27.7 µM (inactive),16.7 µM (inactive),10.8 µM (inactive),20.9 µM (inactive),16 µM (inactive),10.8 µM (inactive),12 µM (inactive),10 µM (inactive),5.56 µM (inactive),4.2 µM (inactive)
CCOC(=O)c1cc2cc(N(C(C)=O)C(C)=O)ccc2s1,20 µM (inactive),30.8 µM (inactive),28.3 µM (inactive),13.8 µM (inactive),13.5 µM (inactive),36.1,33.7 µM (inactive),29.9 µM (inactive),18.3 µM (inactive),20.6 µM (inactive),23 µM (inactive),25.1 µM (inactive),20.5 µM (inactive),20.4 µM (inactive),27 µM (inactive),40.5 µM (inactive),25.1 µM (inactive),36.2 µM (inactive),29.5 µM (inactive),38 µM (inactive)
CCOC(=O)c1sc2nc(SC)nc3c2c1NCN3c1ccc2c(c1)OCCCO2,,56.1 µM (inactive),> 100 µM (inactive),7.98 µM (inactive),11.7 µM (inactive),> 100,,51.2 µM (inactive),68.1 µM (inactive),> 100 µM (inactive),24.3 µM (inactive),> 100 µM (inactive),> 100 µM (inactive),3.53 µM (inactive),13.9 µM (inactive),4.18 µM (inactive),38.2 µM (inactive),8.71 µM (inactive),5.02 µM (inactive),> 100 µM (inactive)
CC[C@H](C)[C@H](NC(=O)N(CCC#N)CCN(CCN(C(=O)N[C@@H](Cc1ccccc1)C(=O)OC)c1ccccc1)C(=O)N[C@H](C(=O)OC)C(C)C)C(=O)OC,,15 µM (inactive),27.5 µM (inactive),19.6 µM (inactive),14.2 µM (inactive),21.8,24.2 µM (inactive),22.9 µM (inactive),14.3 µM (inactive),29.7 µM (inactive),18 µM (inactive),25 µM (inactive),16.1 µM (inactive),21.5 µM (inactive),23.6 µM (inactive),20.9 µM (inactive),20.5 µM (inactive),21.4 µM (inactive),19.2 µM (inactive),19.1 µM (inactive)
C/C(=N\O)c1cccc(Nc2nc3ccccc3c3occc23)c1,4.32 µM (inactive),14.3 µM (inactive),15 µM (inactive),14.8 µM (inactive),5.19 µM (inactive),7.94,12.9 µM (inactive),13.1 µM (inactive),7.73 µM (inactive),12.7 µM (inactive),11.9 µM (inactive),14.9 µM (inactive),12.1 µM (inactive),1.72 µM (inactive),15.5 µM (inactive),10 µM (inactive),12.7 µM (inactive),,12.3 µM (inactive),
